# From US20210015134A1, “CONSUMABLES” (Givaudan S.A., priority 2006, published 2021)
# Assays:
# Type in all cases: in vivo
# [1] = test system: sweet sensitive subjects; assay: Sweetness quality evaluation (time of onset, localization, duration); details: for Sensory evaluation of sweetness intensity: sweetness quality
# Protocol: Rebaudioside A (99%+, purified from plant extract, Sweet Aloha Farms, LLC) (1 ppm, 10 ppm, 20 ppm, 30 ppm) in 2% sucrose samples was evaluated for the qualities of the sweetness of the samples (time of onset, localization, duration). The sensory evaluations were conducted as follows. All samples were presented at ambient temperature in 15 ml aliquots and presented blindly to sweet sensitive subjects of varying sweet sensitivity. Subjects tasted the samples and were asked to evaluate the quality of sweetness. Sucrose solutions (2% and 7%) were presented as references.
# Rebaudioside A (99%+, purified from plant extract, Sweet Aloha Farms, LLC) (1 ppm, 10 ppm, 20 ppm, 30 ppm) in 7% sucrose samples were evaluated for the qualities of the sweetness of the samples (time of onset, localization, duration). The sensory evaluations were conducted as follows. All samples were presented at ambient temperature in 15 ml aliquots and presented blindly to sweet sensitive subjects of varying sweet sensitivity. Subjects tasted the samples and were asked to evaluate the quality of the sweetness. Sucrose solutions (2% and 7%) were presented as references to evaluate the sweetness of the rebaudioside A samples.
# Stevioside extract (95%+, purified from plant extract, Apin Chemicals) (20 ppm, 30 ppm, 40 ppm, 50 ppm) was evaluated in 2% sucrose for the qualities of the sweetness of the samples (time of onset, localization, duration). The sensory evaluations were conducted as follows. All samples were presented at ambient temperature in 15 ml aliquots and presented blindly to sweet sensitive subjects of varying sweet sensitivity. Subjects tasted the samples and were asked to evaluate the sweetness qualities. Sucrose solutions (2% and 7%) were presented as references.
# Stevioside (20 ppm, 30 ppm, 40 ppm, 50 ppm) was evaluated in 7% sucrose for the qualities of the sweetness of the samples (time of onset, localization, duration). The sensory evaluations were conducted as follows. All samples were presented at ambient temperature in 15 ml aliquots and presented blindly to sweet sensitive subjects of varying sweet sensitivity. Subjects tasted the samples and were asked to evaluate the sweetness qualities. Sucrose solutions (2% and 7%) were presented as references to evaluate the sweetness of the stevioside samples.
# [2] = test system: sweet sensitive panelists; assay: Ranking test, near threshold sweetness isointensity of enhancer in water (Example 3b); details: for isointensity to sucrose solution: 20 ppm in water, by interpolation
# Protocol: The sensory evaluation was conducted using a ranking method. Samples at ambient temperature were randomly presented in 15 ml blind aliquots (unidentifiable by panelists). […] After tasting each sample, the mouth was rinsed thoroughly with water at ambient temperature prior to tasting the next sample. […] They were asked to rank the samples from low to high with respect to perceived sweet taste.
# [3] = test system: sweet sensitive panelists; assay: Comparative sensory evaluation of sweetness enhancers in sweetener solution or water (Example 1)
# Protocol: Comparative sensory evaluation of sweetness enhancers in 2 or 7% sucrose
# The test samples contained the potential sweetness enhancers in 0% sucrose (water), 2% sucrose, or 7% sucrose, and control samples of 0%, 2% and 7% sucrose without any additive. The sensory evaluations were conducted as follows. All samples were presented at ambient temperature in 15 ml aliquots to panels consisting of 5-9 sweet sensitive subjects of varying sweet sensitivity. After tasting each sample, the mouth was rinsed thoroughly with water at ambient temperature prior to tasting the next sample. The sucrose positive control (2% or 7%) was presented first and served as the sweetness reference to which all sweetness enhancer/sucrose combinations were directly compared.
# One tasting sequence included tasting the sucrose control first, rinsing with water, tasting the sweetness enhancer/sucrose sample, rinsing with water followed by tasting the sucrose control again. Once the sequence was completed, each panelist chose the sample which was sweeter and evaluated the sweetness of each sample relative to one another.
# In a second tasting sequence, this same procedure was followed for the water negative control versus the sweetness enhancer/water samples to determine the sweet taste due to the sweetness enhancer itself at each tested concentration.
# Panelists evaluated the sweetness of the sweetness enhancer in water for each concentration. For their evaluation, panelists were allowed to compare any perceived sweetness of the sweetness enhancer to the 2% or 7% sucrose control to determine the relative intensity of sweetness. Mild sweet taste corresponds to the taste of 2% sucrose, strong sweet taste corresponds to the taste of 7% sucrose.
# Alternatively to sucrose, the evaluation may be performed with another sweetener, for example, high fructose (55%) corn syrup (HFCS, containing 55% fructose and 45% glucose), erythritol, sucralose, aspartame, or acesulfame potassium (AceK).
# [4] = test system: sweet sensitive panelists; assay: Ranking test, sweetness isointensity of enhancer in sweetener solution (Example 3a)
# Protocol: Ranking Tests to Determine the Sweetness Isointensity of Sweetness Enhancers to Sucrose Solutions
# For comparative ranking, samples of 0.5%, 1%, 1.5%, 7%, 8%, 9%, 10% and 11% sucrose solutions were prepared.
# 3a) Sweetness Isointensity of Sweetness Enhancer in Sucrose Solutions
# The sensory evaluation was conducted using a ranking method. Samples at ambient temperature were randomly presented in 15 ml blind aliquots (unidentifiable by panelists). Panels consisted of 10 sweet sensitive subjects and samples were presented in 4 replications over 2 sessions. After tasting each sample, the mouth was rinsed thoroughly with water at ambient temperature prior to tasting the next sample. Panelists were presented with 7%, 8%, 9%, 10%, 11% sucrose samples and a sixth sample of 7% sucrose with a sweetness enhancer in a concentration near its sweetness detection threshold. They were asked to rank the samples from low to high with respect to perceived sweet taste. R-indices were calculated for 7% sucrose with the sweetness enhancer versus 7%, 8%, 9%, 10% or 11% sucrose.
# [5] = test system: sweet sensitive panelists; assay: Paired comparison of sweetness enhancers in water versus sucrose (Example 4, modified)
# Protocol: Paired Comparisons of Sweetness Enhancers and Mixtures Thereof in Water and 7% Sucrose
# Samples of sweetness enhancers were prepared in water or 7% sucrose. One, two or three sweetness enhancers were used in a sample. All samples were presented to panelists at ambient temperature. The sensory evaluation was conducted using a paired comparison method. […] Samples were paired randomly and presented in unidentifiable pairs of two (left and right) to the panelists in random order. The sample on the left was tasted first, followed by rinsing the mouth with water, then tasting the sample on the right. Once completing the sequence, each panelist ranked the pair of samples for sweetness then evaluated samples with respect to one another with the following descriptors (in ascending order): […]
# [6] = test system: panelists; assay: Fractionated swingle extract: comparative sensory evaluation in 0% and 2% sucrose; details: from fractions at 60 ppm in 2% sucrose and LC-MS analysis
# Protocol: Swingle extract, comprising 80% total mogroside content by weight, was fractionated by reversed phase (C-18) flash chromatography. Compounds were eluted using a mixture of methanol (MeOH) in water starting at 30% MeOH (264 ml) followed by a linear gradient of 30-80% MeOH (1320 ml) then finally the column was flushed with 80% MeOH (264 ml). The solvents were introduced at a flow rate of 30 ml/min throughout the separation procedure. Eluted compounds were visualized with a UV detector set at 210 nm and a Corona light scattering detector. Collected fractions were pooled according to the table below then freeze dried to powders.
# The powders corresponding to various pooled fractions as given in the table below were dissolved in a concentration of 60 ppm in either 0% or 2% sucrose. The sample in 0% sucrose when determined to be sweet was in addition to the 0% sucrose control also compared to a 2% sucrose control and to the other fractions to estimate the degree of sweetness.
# [7] = 20 ppm in water vs 0.5% sucrose
# [8] = 20 ppm in water vs 1.5% sucrose
# [9] = 20 ppm in 7% sucrose vs 7% sucrose
# [10] = 20 ppm in 7% sucrose vs 8% sucrose
# [11] = 20 ppm in 7% sucrose vs 9% sucrose
# [12] = 20 ppm in 7% sucrose vs 10% sucrose
# [13] = 20 ppm in 7% sucrose vs 11% sucrose
smiles,measurement,setting,value
C=C1C[C@@]23CC[C@H]4[C@@](C)(CCC[C@@]4(C)C(=O)O[C@@H]4O[C@H](CO)[C@@H](O)[C@H](O)[C@H]4O)[C@@H]2CC[C@]1(O[C@@H]1O[C@H](CO)[C@@H](O)[C@H](O[C@@H]2O[C@H](CO)[C@@H](O)[C@H](O)[C@H]2O)[C@H]1O[C@@H]1O[C@H](CO)[C@@H](O)[C@H](O)[C@H]1O)C3 [Rebaudioside A],"Sensory evaluation of sweetness intensity (strength, onset, localisation, duration)",[1]; 1 ppm in 7% sucrose,"immediate onset, full mouth sweet, non-lingering"
same,"Sensory evaluation of sweetness intensity (strength, onset, localisation, duration)",[1]; 10 ppm in 7% sucrose,"immediate onset, full mouth sweet, non-lingering"
same,"Sensory evaluation of sweetness intensity (strength, onset, localisation, duration)",[1]; 20 ppm in 7% sucrose,"immediate onset, full mouth sweet, non-lingering"
same,Sensory evaluation of sweetness intensity,[1]; 1 ppm in 2% sucrose,"immediate onset, full mouth sweet, non-lingering"
same,Sensory evaluation of sweetness intensity,[1]; 10 ppm in 2% sucrose,"immediate onset full mouth sweet, non-lingering"
same,Sensory evaluation of sweetness intensity,[1]; 20 ppm in 2% sucrose,"immediate onset, full mouth sweet, non-lingering"
same,R-index,[2]; [7],84%
same,"sample sweetness (RedA, 20 ppm)",[2]; [7],sweeter
same,R-index,[2]; 20 ppm in water vs 1% sucrose,12%
same,"sample sweetness (RedA, 20 ppm)",[2]; 20 ppm in water vs 1% sucrose,less sweet
same,R-index,[2]; [8],0%
same,"sample sweetness (RedA, 20 ppm)",[2]; [8],less sweet
same,isointensity to sucrose solution,[2]; listed as rebaudioside,about 0.75 % sucrose
same,isointensity to sucrose solution,[2]; listed as rebaudioside A,0.75 % sucrose
same,Sensory evaluation of sweetness intensity,[3]; 1 ppm in 2% sucrose,barely perceived as sweeter than sucrose control
same,Sensory evaluation of sweetness intensity,[3]; 1 ppm in 7% sucrose,very weakly sweeter than sucrose control
same,Sensory evaluation of sweetness intensity,[3]; 1 ppm in water (Example 8A),no sweetness
same,Sensory evaluation of sweetness intensity,[3]; 1 ppm in water (Example 8B),no sweetness
same,Sensory evaluation of sweetness intensity,[3]; 10 ppm in 2% sucrose,notably sweeter than sucrose control
same,Sensory evaluation of sweetness intensity,[3]; 10 ppm in 7% sucrose,notably sweeter than sucrose control
same,Sensory evaluation of sweetness intensity,[3]; 10 ppm in water (Example 8A),"barely perceivable, late onsetting sweet"
same,Sensory evaluation of sweetness intensity,[3]; 10 ppm in water (Example 8B),"barely perceivable, late onsetting sweet"
same,Sensory evaluation of sweetness intensity,[3]; 20 ppm in 2% sucrose,much sweeter than sucrose control
same,Sensory evaluation of sweetness intensity,[3]; 20 ppm in 7% sucrose,much sweeter than sucrose control
same,Sensory evaluation of sweetness intensity,[3]; 20 ppm in water (Example 8A),barely perceivable sweetness
same,Sensory evaluation of sweetness intensity,[3]; 20 ppm in water (Example 8B),barely perceivable sweetness
same,Sensory evaluation of sweetness intensity,[3]; 30 ppm in 2% sucrose,substantially sweeter than sucrose control
same,Sensory evaluation of sweetness intensity,[3]; 30 ppm in 7% sucrose,substantially sweeter than sucrose control
same,Sensory evaluation of sweetness intensity,[3]; 30 ppm in water (Example 8A),very weak sweetness far below the 2% sucrose control
same,Sensory evaluation of sweetness intensity,[3]; 30 ppm in water (Example 8B),very weak sweetness far below the 2% sucrose control
same,R-index,[4]; [9],91%
same,Rebaudioside A sample sweetness,[4]; [9],sweeter
same,R-index,[4]; [10],72%
same,Rebaudioside A sample sweetness,[4]; [10],sweeter
same,R-index,[4]; [11],7%
same,Rebaudioside A sample sweetness,[4]; [11],less sweet
same,R-index,[4]; [12],0%
same,Rebaudioside A sample sweetness,[4]; [12],less sweet
same,R-index,[4]; [13],0%
same,Rebaudioside A sample sweetness,[4]; [13],less sweet
same,sweetness isointensity to sucrose,"[4]; 20 ppm in 7% sucrose, by interpolation",8.5 % sucrose
same,Result of comparison,[5]; 1 ppm in water vs 0% sucrose,isosweet
same,Result of comparison,[5]; 10 ppm in water vs 0% sucrose,weakly sweeter
same,Result of comparison,[5]; 10 ppm in water vs 0.5% sucrose,notably less sweet
same,Result of comparison,[5]; [7],notably sweeter
same,Result of comparison,[5]; 20 ppm in water vs 1% sucrose,less sweet
same,isointensity to sucrose solution,[5]; 30 ppm in water,1 % sucrose
same,Result of comparison,[5]; 30 ppm in water vs 1% sucrose,isosweet
same,Result of comparison,[5]; 30 ppm in water vs 1.5% sucrose,significantly less sweet
C[C@H](CC[C@@H](O[C@@H]1O[C@H](CO)[C@@H](O)[C@H](O)[C@H]1O[C@@H]1O[C@H](CO)[C@@H](O)[C@H](O)[C@H]1O)C(C)(C)O)[C@H]1CC[C@@]2(C)[C@H]3CC=C4[C@@H](CC[C@H](O[C@@H]5O[C@H](CO[C@@H]6O[C@H](CO)[C@@H](O)[C@H](O)[C@H]6O)[C@@H](O)[C@H](O)[C@H]5O)C4(C)C)[C@]3(C)[C@H](O)C[C@]12C [mogroside IV],contribution to the observed enhancement effect of swingle extract,[6],contributing marginally
C[C@H](CC[C@@H](O[C@@H]1O[C@H](CO[C@@H]2O[C@H](CO)[C@@H](O)[C@H](O)[C@H]2O)[C@@H](O)[C@H](O)[C@H]1O[C@@H]1O[C@H](CO)[C@@H](O)[C@H](O)[C@H]1O)C(C)(C)O)[C@H]1CC[C@@]2(C)[C@@H]3CC=C4[C@@H](CC[C@H](O[C@@H]5O[C@H](CO)[C@@H](O)[C@H](O)[C@H]5O)C4(C)C)[C@]3(C)[C@H](O)C[C@]12C [siamenoside I],contribution to the observed enhancement effect of swingle extract,[6],contributing marginally
